Assay results as given in patent US20030215896A1, “Gamma secretase substrates and in vitro assays” (priority 2003, published 2003).

Experiments:
[1] = tested on: γ-secretase (HeLa cell membranes); assay: In vitro γ-secretase assay with HeLa cell membranes and SEQ. ID. NO. 9 substrate in presence of detergent, ECL; type: biochemical, human; conditions: detergent 0.75%
[2] = tested on: γ-secretase (HeLa cell membranes); assay: Extraction of γ-secretase activity from HeLa cell membranes with CHAPSO detergent; type: biochemical, human
Procedure: HeLa S3 cells from American Type Culture Collection (Rockville, Md.) were grown in bioreactors (Analytical Biological Services; Wilmington, Del.) in 90% DMEM, 10% fetal bovine serum, 2 mM glutamine and 100 μg/ml each of penicillin and streptomycin. […] The cells were broken by single-pass through a French Press (Spectronic Instruments, Rochester, N.Y.). Cell debris and nuclei were removed by centrifugation at 800×g for 10 minutes. The supernatant solutions were centrifuged at 100,000×g for 60 minutes. The ensuing pellets were resuspended in buffer A and the centrifugation was repeated. The final membrane pellets were resuspended in buffer A to yield a protein concentration of approximately 12 mg/ml. All procedures were performed at 4° C. The membranes were stored at −70° C. […] The supernatant solutions (solubilized fractions) and the pellets (membrane fractions) were then assayed for γ-secretase activity with the SEQ. ID. NO. 9 substrate. […] The ensuing supernatant solution provides “solubilized γ-secretase”. […] In vitro assays measuring γ-secretase activity were performed using cell membranes or as “solubilized γ-secretase”. In one reaction, SEQ. ID. […] ID. NO. 9 substrate at 37° C. in the presence of detergent in buffer B.

[3] = tested on: γ-secretase (HeLa cell membranes); assay: In vitro γ-secretase assay with HeLa cell membranes and SEQ. ID. NO. 9 substrate in presence of detergent, ECL; type: biochemical, human; conditions: for Effect of detergent on in vitro γ-secretase cleavage of substrate: SEQ. ID. NO. 9 substrate
Procedure: HeLa S3 cells from American Type Culture Collection (Rockville, Md.) were grown in bioreactors (Analytical Biological Services; Wilmington, Del.) in 90% DMEM, 10% fetal bovine serum, 2 mM glutamine and 100 μg/ml each of penicillin and streptomycin. Frozen HeLa S3 cells were resuspended in buffer A (50 mM MES, pH 6.0, 5 mM MgCl2, 5 mM CaCl2, 150 mM KCl) containing “complete” protease inhibitor cocktail (Boehringer Mannheim, Indianapolis, Ind.). The cells were broken by single-pass through a French Press (Spectronic Instruments, Rochester, N.Y.). Cell debris and nuclei were removed by centrifugation at 800×g for 10 minutes. The supernatant solutions were centrifuged at 100,000×g for 60 minutes. The ensuing pellets were resuspended in buffer A and the centrifugation was repeated. The final membrane pellets were resuspended in buffer A to yield a protein concentration of approximately 12 mg/ml. All procedures were performed at 4° C. The membranes were stored at −70° C.
In vitro assays measuring γ-secretase activity were performed using cell membranes or as “solubilized γ-secretase”. In one reaction, SEQ. ID. NO. 9 substrate (1.7 μM) was incubated with cell membranes (0.5 mg/ml) in presence of detergent in buffer B (50 mM PIPES, pH 7.0, 5 mM MgCl2, 5 mM CaCl2, 150 mM KCl) at 37° C. In another reaction, supernatant solution from CHAPSO-extracted HeLa cell membranes (“solubilized γ-secretase”) was incubated with SEQ. ID. NO. 9 substrate at 37° C. in the presence of detergent in buffer B. Generally, 0.25% CHAPSO was provided as the detergent. The reactions were stopped by adding RIPA (150 mM NaCl, 1.0% NP-40, 0.5% DOC, 0.1% SDS, 50 mM Tris HCl, pH 8.0).
The samples were centrifuged and the supernatant solutions were assayed for the Aβ peptides by ECL. The Aβ40- and Aβ42-related products from γ-secretase-mediated processing of SEQ. ID. NO.
SEQ. ID. NO. 9 substrate (1.7 μM) was incubated with cell membranes (0.5 mg/ml) in presence of CHAPSO, CHAPS or Triton X-100 (0, 0.125, 0.25, 0.5, or 1%) in buffer B at 37° C.

γ-secretase = γ-secretase (Cricetulus griseus, UniProt G3HNF2); assay: Radiolabeling pulse-chase of CHO/APP695 cells, 4G8 immunoprecipitation, SDS-PAGE; type: cell-based, Chinese hamster; conditions: 1 μM, data not shown
Procedure: The effect of a γ-secretase inhibitor on γ-secretase activity was measured using Chinese hamster ovary fibroblasts that stably express APP695 (CHO/APP695, provided by Dr. S. Sisodia (University of Chicago, Chicago, Ill.)). CHO/APP695 were grown in 90% DMEM, 10% fetal bovine serum, 2 mM glutamine, 100 μg/ml each of penicillin and streptomycin, and 0.2 mg/ml G418. CHO/APP695 cells were seeded in 96-well dishes at 2×10^4 cells/well. Aβ-peptide formation was detected by either ECL or using radiolabeling.
For the radiolabeling experiments, CHO/APP695 cells (in 100 mm dishes) were grown to 70% confluency in complete media. Afterwards, these cells were cultured±1 μM L-685,458 for 24 hours, switched to Met-free medium (±1 μM L-685,458) for 20 minutes, pulsed with 1 mCi/ml of S^35-Met (Amersham Life Sciences, Inc, Arlington Heights, Ill.) in Met-free medium (±1 μM L-685,458) for 2 hours, and subsequently chased in complete medium (±1 μM L-685,458) for 45 minutes. The cells were washed with Hanks balanced salt solution and lysed with 1 ml of RIPA. The insoluble residue was removed by centrifugation. The 4G8 antibody (final concentration, 2 μg/ml) was added to the supernatant fractions. The samples were gently rotated overnight at 4° C. Protein G-agarose beads (Pharmacia Biotech, Piscataway, N.J.) were added the next day, the samples were rotated for an additional 2 hours and then centrifuged. […]

[4] = biological target: T1, solubilized γ-secretase (CHAPSO-extracted HeLa cell membranes) (Homo sapiens, UniProt P49768); assay: In vitro γ-secretase assay with "solubilized γ-secretase" and SEQ. ID. NO. 9 substrate, ECL; type: biochemical; conditions: assaying for Aβ40 cleavage, FIG. 2A; read-out: Apparent Km value of solubilized γ-secretase for substrate
T1 construct: ID; NO; 9 su
Procedure: (§1) The ensuing supernatant solution provides “solubilized γ-secretase”.
(§2) In vitro assays measuring γ-secretase activity were performed using cell membranes or as “solubilized γ-secretase”. In one reaction, SEQ. ID. NO. […] ID. NO.

[5] = tested on: solubilized γ-secretase (CHAPSO-extracted HeLa cell membranes); assay: as above; type: biochemical, human; conditions: solubilized γ-secretase
Procedure: as §1, §2

[6] = biological target: solubilized γ-secretase (supernatant solution from 1% CHAPSO-extracted HeLa S3 cell membranes); assay: cell-based or functional assay

Compound	M-Aβ 40 production [1]	Effect of detergent on in vitro γ-secretase cleavage of substrate ([3]; HeLa cell membranes)	M-Aβ 40 production ([3]; detergent 0.125%)	M-Aβ 40 production ([3]; detergent 0.25%)	M-Aβ 40 production ([3]; detergent 0.5%)	M-Aβ 40 production ([3]; detergent 1%)	further results
C[C@H](CCC(=O)NCCC[N+](C)(C)CC(O)CS(=O)(=O)[O-])[C@H]1CC[C@H]2[C@@H]3[C@H](O)C[C@@H]4C[C@H](O)CC[C@]4(C)[C@H]3C[C@H](O)[C@]12C (some centres unmarked) [CHAPSO]	0.07 ECL signal × 10^−6	promotes cleavage at the γ-secretase scissile bond	2.2 ECL signal × 10^−6	8.74 ECL signal × 10^−6	1.22 ECL signal × 10^−6	0.03 ECL signal × 10^−6	% of total γ-secretase activity in Membranes fraction ([2]; CHAPSO 0.25%): 97%; % of total γ-secretase activity in Solubilized fraction ([2]; CHAPSO 0.25%): 3%; % of total γ-secretase activity in Membranes fraction ([2]; CHAPSO 0.50%): 65%; % of total γ-secretase activity in Solubilized fraction ([2]; CHAPSO 0.50%): 35%; % of total γ-secretase activity in Membranes fraction ([2]; CHAPSO 1.00%): 51%; % of total γ-secretase activity in Membranes fraction ([2]; CHAPSO 2.0%): 50%; % of total γ-secretase activity in Solubilized fraction ([2]; CHAPSO 2.0%): 50%; Detergent concentration giving optimal γ-secretase activity ([3]; HeLa cell membranes): 0.25%
C[C@H](CCC(=O)NCCC[N+](C)(C)CCCS(=O)(=O)[O-])[C@H]1CC[C@H]2[C@@H]3[C@H](O)C[C@@H]4C[C@H](O)CC[C@]4(C)[C@H]3C[C@H](O)[C@]12C [CHAPS]	0.04 ECL signal × 10^−6	promotes cleavage at the γ-secretase scissile bond	0.03 ECL signal × 10^−6	3.21 ECL signal × 10^−6	0.27 ECL signal × 10^−6	0.03 ECL signal × 10^−6	
CC(C)C[C@H](NC(=O)[C@H](Cc1ccccc1)C[C@@H](O)[C@H](Cc1ccccc1)NC(=O)OC(C)(C)C)C(=O)N[C@@H](Cc1ccccc1)C(N)=O [L-685,458]							Intracellular accumulation of APP fragments (α-CTF, β-CTF) (γ-secretase): intracellular accumulation of APP immunoreactive fragments that co-migrate with α-CTF and β-CTF
SEQ. ID. NO. 9 substrate: γ-secretase substrate: fusion protein of N-terminal Met, APP597-695 (β-CTF domain) and C-terminal Flag tag DYKDDDDK							Aβ42/Aβ40 cleavage ratio ([3]; intact membranes): approximately 0.1; Km [4]: ~1 µM; Aβ42/Aβ40 cleavage ratio [5]: approximately 0.1
Triton X-100	0.02 ECL signal × 10^−6	fails to potentiate in vitro γ-secretase activity	0.02 ECL signal × 10^−6	0.02 ECL signal × 10^−6	0.02 ECL signal × 10^−6	0.02 ECL signal × 10^−6	
pepstatin (peptide)							IC50 for inhibiting the generation of the Aβ40 terminus (in vitro γ-secretase assay, ECL) [6]: 4 µM; IC50 for inhibiting the generation of the Aβ42 terminus (in vitro γ-secretase assay, ECL) [6]: 5.9 µM
